Laboratory results reported in ChEMBL document CHEMBL4765364, “Synthesis, antibacterial and antifungal activity of new 3-biphenyl-3H-Imidazo[1,2-a]azepin-1-ium bromides” (Eur J Med Chem, 2020).
Converted amounts (≈) assume the structure as drawn. The source made the active and inactive calls. The calls are words filed in the database; no cut-off is given here.

What was measured:
Staphylococcus aureus [1] = assay: Antibacterial activity against methicillin resistant Staphylococcus aureus ATCC 43300 measured after 18 hrs; assay type: functional
Escherichia coli [2] = assay: Antibacterial activity against Escherichia coli ATCC 25922 measured after 18 hrs; assay type: functional
Klebsiella pneumoniae [3] = assay: Antibacterial activity against Klebsiella pneumoniae ATCC 700603 measured after 18 hrs; assay type: functional
Acinetobacter baumannii [4] = assay: Antibacterial activity against Acinetobacter baumannii ATCC 19606 measured after 18 hrs; assay type: functional; conditions: ATCC 19606 = CIP 70.34 = JCM 6841
Pseudomonas aeruginosa [5] = assay: Antibacterial activity against Pseudomonas aeruginosa ATCC 27853 measured after 18 hrs; assay type: functional
Candida albicans [6] = assay: Antifungal activity against Candida albicans ATCC 90028 measured after 24 hrs by resazurin dye based assay; assay type: functional
Cryptococcus neoformans [7] = assay: Antifungal activity against Cryptococcus neoformans ATCC 208821 measured after 24 hrs by resazurin dye based assay; assay type: functional
Staphylococcus aureus [8] = assay: Antibacterial activity against methicillin resistant Staphylococcus aureus ATCC 43300 at 32 ug/ml measured after 18 hrs; assay type: functional
Escherichia coli [9] = assay: Antibacterial activity against Escherichia coli ATCC 25922 at 32 ug/ml measured after 18 hrs; assay type: functional
Klebsiella pneumoniae [10] = assay: Antibacterial activity against Klebsiella pneumoniae ATCC 700603 at 32 ug/ml measured after 18 hrs; assay type: functional
Acinetobacter baumannii [11] = assay: Antibacterial activity against Acinetobacter baumannii ATCC 19606 at 32 ug/ml measured after 18 hrs; assay type: functional, ATCC 19606 = CIP 70.34 = JCM 6841
Pseudomonas aeruginosa [12] = assay: Antibacterial activity against Pseudomonas aeruginosa ATCC 27853 at 32 ug/ml measured after 18 hrs; assay type: functional
Candida albicans [13] = assay: Antifungal activity against Candida albicans ATCC 90028 at 32 ug/ml measured after 24 hrs by resazurin dye based assay; assay type: functional
Cryptococcus neoformans [14] = assay: Antifungal activity against Cryptococcus neoformans ATCC 208821 at 32 ug/ml measured after 24 hrs by resazurin dye based assay; assay type: functional
[15] = Cytotoxicity against HEK293 cells measured after 20 hrs by resazurin dye based fluorescence assay; assay type: cell-based; conditions: human
[16] = ATCC 19606 = CIP 70.34 = JCM 6841, dose 32.0 µg/ml

| Compound | MIC (Staphylococcus aureus [1]) [µg/mL] | MIC (Escherichia coli [2]) [µg/mL] | MIC (Klebsiella pneumoniae [3]) [µg/mL] | MIC (Acinetobacter baumannii [4]) [µg/mL] | MIC (Pseudomonas aeruginosa [5]) [µg/mL] | MIC (Candida albicans [6]) [µg/mL] | MIC (Cryptococcus neoformans [7]) [µg/mL] | Activity (Staphylococcus aureus [8]; dose 32 µg/ml) [%] | Activity (Escherichia coli [9]; dose 32 µg/ml) [%] | Activity (Klebsiella pneumoniae [10]; dose 32 µg/ml) [%] | Activity (Acinetobacter baumannii [11]; dose 32 µg/ml) [%] | Activity (Pseudomonas aeruginosa [12]; dose 32 µg/ml) [%] | Activity (Candida albicans [13]; dose 32 µg/ml) [%] | Activity (Cryptococcus neoformans [14]; dose 32 µg/ml) [%] | CC50 at 20 h [15] [µg/mL] | also measured |
| --- | --- | --- | --- | --- | --- | --- | --- | --- | --- | --- | --- | --- | --- | --- | --- | --- |
| COc1ccc([N+]2=C3CCCCCN3C(O)(c3ccc(-c4ccccc4)cc3)C2)c(OC)c1.[Br-] (stereo unspecified) | 8 | > 32 | > 32 | > 32 | 32 | > 32 | 32 | >80 | >80 | >80 | >80 | >80 | >80 | >80 | 2.4 | – |
| OC1(c2ccc(-c3ccccc3)cc2)C[N+](c2ccc(Cl)cc2)=C2CCCCCN21.[Br-] (stereo unspecified) | 16 | > 32 | > 32 | > 32 | 32 | > 32 | > 32 | >80 | >80 | >80 | >80 | >80 | >80 | >80 | 3.9 | – |
| OC1(c2ccc(-c3ccccc3)cc2)C[N+](c2ccc3c(c2)OCO3)=C2CCCCCN21.[Br-] (stereo unspecified) | 32 | > 32 | > 32 | > 32 | > 32 | > 32 | > 32 | >80 | >80 | >80 | >80 | >80 | >80 | >80 | 4.5 | – |
| COc1ccc([N+]2=C3COCCN3C(O)(c3ccc(-c4ccccc4)cc3)C2)cc1 (stereo unspecified) | – | – | – | – | – | – | – | – | – | – | – | – | – | – | – | Activity (Staphylococcus aureus [8]; dose 32.0 µg/ml): inactive; Activity (Escherichia coli [9]; dose 32.0 µg/ml): inactive; Activity (Klebsiella pneumoniae [10]; dose 32.0 µg/ml): inactive; Activity (Acinetobacter baumannii [11]; [16]): inactive; Activity (Pseudomonas aeruginosa [12]; dose 32.0 µg/ml): inactive; Activity (Candida albicans [13]; dose 32.0 µg/ml): inactive; Activity (Cryptococcus neoformans [14]; dose 32.0 µg/ml): inactive |
| OC1(c2ccc(-c3ccccc3)cc2)C[N+](c2ccc(Br)cc2)=C2CCCCCN21.[Br-] (stereo unspecified) | > 32 | > 32 | > 32 | > 32 | > 32 | > 32 | > 32 | >80 | >80 | >80 | >80 | >80 | >80 | >80 | 6.1 | – |
| OC1(c2ccc(-c3ccccc3)cc2)C[N+](c2ccc(OC(F)F)cc2)=C2CCCCCN21.[Br-] (stereo unspecified) | 16 | > 32 | > 32 | > 32 | > 32 | > 32 | > 32 | >80 | >80 | >80 | >80 | >80 | >80 | >80 | 5.8 | – |
| OC(Cn1cncn1)(Cn1cncn1)c1ccc(F)cc1F [FLUCONAZOLE] | – | – | – | – | – | 0.125 (≈ 0.408 µM) | 8 (≈ 26.1 µM) | – | – | – | – | – | – | – | – | – |
| CC/C(=C(\c1ccccc1)c1ccc(OCCN(C)C)cc1)c1ccccc1 [TAMOXIFEN] | – | – | – | – | – | – | – | – | – | – | – | – | – | – | 9 (≈ 24.2 µM) | – |
| CCc1ccc([N+]2=C3CCCCCN3C(O)(c3ccc(-c4ccccc4)cc3)C2)cc1.[Br-] (stereo unspecified) | 8 | > 32 | > 32 | > 32 | 32 | > 32 | 32 | >80 | >80 | >80 | >80 | >80 | >80 | >80 | 2.2 | – |
| Cc1ccc(-[n+]2cc(-c3ccc(-c4ccccc4)cc3)n3c2CCCCC3)cc1.[Br-] | 8 | > 32 | > 32 | > 32 | > 32 | 8 | 16 | >80 | >80 | >80 | >80 | >80 | >80 | >80 | 2.1 | – |
| COLISTIN | – | 0.125 | 0.25 | 0.25 | 0.25 | – | – | – | – | – | – | – | – | – | – | – |
| CCc1ccc(-[n+]2cc(-c3ccc(-c4ccccc4)cc3)n3c2CCCCC3)cc1.[Br-] | 4 | > 32 | > 32 | > 32 | 32 | 4 | 8 | >80 | >80 | >80 | >80 | >80 | >80 | >80 | 1.4 | – |
| Cc1ccc([N+]2=C3CCCCCN3C(O)(c3ccc(-c4ccccc4)cc3)C2)cc1.[Br-] (stereo unspecified) | 16 | > 32 | > 32 | > 32 | > 32 | > 32 | > 32 | >80 | >80 | >80 | >80 | >80 | >80 | >80 | 2.7 | – |
| COc1ccc([N+]2=C3CCCCCN3C(O)(c3ccc(-c4ccccc4)cc3)C2)cc1.[Br-] (stereo unspecified) | 16 | > 32 | > 32 | > 32 | > 32 | > 32 | 32 | >80 | >80 | >80 | >80 | >80 | >80 | >80 | 2.6 | – |
| CCOc1ccc([N+]2=C3CCCCCN3C(O)(c3ccc(-c4ccccc4)cc3)C2)cc1.[Br-] (stereo unspecified) | 16 | > 32 | > 32 | > 32 | > 32 | > 32 | 32 | >80 | >80 | >80 | >80 | >80 | >80 | >80 | 2.4 | – |
| OC1(c2ccc(-c3ccccc3)cc2)C[N+](c2ccccc2)=C2CCCCCN21.[Br-] (stereo unspecified) | 32 | > 32 | > 32 | > 32 | > 32 | > 32 | > 32 | >80 | >80 | >80 | >80 | >80 | >80 | >80 | 2.3 | – |
| COc1ccccc1[N+]1=C2CCCCCN2C(O)(c2ccc(-c3ccccc3)cc2)C1.[Br-] (stereo unspecified) | 16 | > 32 | > 32 | > 32 | > 32 | 32 | 8 | >80 | >80 | >80 | >80 | >80 | >80 | >80 | 2.2 | – |
| CCOc1ccc(-[n+]2cc(-c3ccc(-c4ccccc4)cc3)n3c2CCCCC3)cc1.[Br-] | 4 | > 32 | > 32 | > 32 | 32 | 8 | 16 | >80 | >80 | >80 | >80 | >80 | >80 | >80 | 1.7 | – |
| COc1ccc([N+]2=C3CCCCN3C(O)(c3ccc(-c4ccccc4)cc3)C2)cc1 (stereo unspecified) | – | – | – | – | – | – | – | – | – | – | – | – | – | – | – | Activity (Staphylococcus aureus [8]; dose 32.0 µg/ml): inactive; Activity (Escherichia coli [9]; dose 32.0 µg/ml): inactive; Activity (Klebsiella pneumoniae [10]; dose 32.0 µg/ml): inactive; Activity (Acinetobacter baumannii [11]; [16]): inactive; Activity (Pseudomonas aeruginosa [12]; dose 32.0 µg/ml): inactive; Activity (Candida albicans [13]; dose 32.0 µg/ml): inactive; Activity (Cryptococcus neoformans [14]; dose 32.0 µg/ml): inactive |
